Where two headings read alike, the source gives them in different places. Bounds are passed on as bounds.

The experiment deals with P493-6 (myc "on") cells. Briefly: Cell Proliferation Assay. Type of experiment: cell-based. The note with it: P493-6, 72 h. On the procedure: P493-6 (myc “on”) cells were maintained in growth media (RPMI-1640, 10% FBS, 2 mM glutamine, 100 units/ml Penicillin and 100 μg/ml streptomycin) at 37° C. with 5% CO2. For compound assay, P493-6 cells were plated in 96-well V-bottom plates on the day of compound addition in 50 μl of growth media at a cell density of 200,000 cells/ml (10,000 cells/well). Compounds were serially diluted in 100% DMSO at 200-times the final concentration. Compounds were diluted 100-fold into growth media and then 50 μl of this mixture was added to cell plates making the final concentration of DMSO 0.5%. Cells were incubated with compound for 72 hrs at 37° C. with 5% CO2 and analyzed for antiproliferative effects either by Cell Titer Glo (Promega) or FACS analysis using the Viacount (Millipore) kit on the Guava instrument.

Setting [1] is: read-out: Cell prolif P493 72 h IC50, P493 cells, 72 h.
Setting [2] is: read-out: Cell prolif P493 72 h IC50, P493-6 cells, 72 h.

With `O=C(Nc1nnc(CCCc2nnc(NC(=O)C(CO)c3ccccc3)s2)s1)C(CO)c1ccccc1` (stereo not drawn) [Compound 176], the IC50 under setting [1] worked out at 1500 nM.
Still for that read-out and setting: under `O=C(CCN1CCOCC1)OC(C(=O)Nc1nnc(CCCCc2nnc(NC(=O)C(O)c3cccc(Cl)c3)s2)s1)c1cccc(Cl)c1` (stereo not drawn) [Compound 358] stands 110 nM; under `O=C(Nc1nnc(CCSCCc2nnc(NC(=O)C3Cc4ccccc4O3)s2)s1)C1Cc2ccccc2O1` (stereo not drawn) [Compound 50], 8200 nM; under `CC1(C(=O)Nc2nnc(CCSCCc3nnc(NC(=O)C4(C)CCCO4)s3)s2)CCCO1` (stereo not drawn) [Compound 119], 13000 nM.
The same measure, in the same setting: under `CO[C@H](C(=O)Nc1nnc(CCCCc2nnc(NC(=O)[C@@H](OC)c3ccccc3)s2)s1)c1ccccc1` [Compound 148] stands 390 nM; under `O=C(Nc1nnc(CCSCCc2nnc(NC(=O)C3COc4ccccc4O3)s2)s1)C1COc2ccccc2O1` (stereo not drawn) [Compound 41], 33000 nM; under `O=C(Cc1ccsc1)Nc1nnc(CCSCCc2nnc(NC(=O)Cc3ccsc3)s2)s1` [Compound 84], 890 nM.
Same read-out and setting: the same measure for `COc1cccc(C(CO)C(=O)Nc2nnc(CCSCc3nnc(NC(=O)C(CO)c4cccc(OC)c4)s3)s2)c1` (stereo not drawn) [Compound 258]: 180 nM.
As for `COCOCCOC(C(=O)Nc1nnc(CCCCc2nnc(NC(=O)C(OCCOCOC)c3ccccc3)s2)s1)c1ccccc1` (stereo not drawn) [Compound 251], the IC50 under setting [1] is 2800 nM.
As for `O=C(Cc1ccccn1)Nc1nnc(CCSCCc2nnc(NC(=O)Cc3ccccn3)s2)s1` [Compound 308], under setting [1], the IC50 was determined as 1200 nM.
Regarding `C[C@@](O)(C(=O)NCc1cccc(CC(=O)Nc2nnc(CCCCc3ccc(NC(=O)Cc4ccccc4)nn3)s2)c1)C(F)(F)F` [Compound 477], the IC50 under setting [2] worked out at 15 nM.
In the case of `O=C(Nc1nnc(CCCCc2nnc(NC(=O)[C@H](O)Cc3ccccc3)s2)s1)[C@H](O)Cc1ccccc1` [Compound 169], the IC50 under setting [1] amounted to 3400 nM.
Regarding `O=C(Cc1ccccc1)Nc1ccc(CCCCc2nnc(NC(=O)Cc3cccc(OCc4ccccn4)c3)s2)nn1` [Compound 480], the IC50 under setting [2] is 6300 nM.
For the compound `CC(=O)Nc1ccc(CC(=O)Nc2nnc(CCCCc3ccc(NC(=O)Cc4ccccc4)nn3)s2)cc1` [Compound 426], under setting [2], the IC50 was found to be 33 nM.
For the compound `O=C(Cc1ccccc1)Nc1nnc(CCCCc2nnc(NC(=O)Cc3ccccc3)s2)s1` [Compound 21, N,N′-[5,5′-(butane-1,4-diyl)-bis(1,3,4-thiadiazole-5,2-diyl)]-bis(2-phenylacetamide)], the IC50 under setting [1] was 20 nM.
For the compound `CS(=O)(=O)CCCOc1cccc(CC(=O)Nc2ccc(CCCCc3nnc(NC(=O)Cc4ccccc4)s3)nn2)c1` [Compound 623], the IC50 under setting [2] worked out at 26 nM.
Consider `CC(C)(C)OC(=O)N1CCC(CC(=O)Nc2nnc(CCSCCc3nnc(NC(=O)CC4CCN(C(=O)OC(C)(C)C)CC4)s3)s2)CC1` [Compound 111], for which the IC50 under setting [1] was 880 nM.
For `CC(C)Cc1ccc(C(C)C(=O)Nc2nnc(CCCCc3ccc(NC(=O)Cc4ccccc4)nn3)s2)cc1` (stereo not drawn) [Compound 557], the IC50 under setting [2] turned out to be 120 nM.
Regarding `O=C(Cc1ccccc1)Nc1ccc(CCCCc2nnc(NC(=O)[C@@H](O)c3ccccc3)s2)nn1` [Compound 350], under setting [1], the IC50 came to 29 nM.
Take `CCCC(=O)OCN(C(=O)Cc1cccc(CNC(=O)OC(C)(C)C)c1)c1nnc(CCCCc2ccc(NC(=O)Cc3ccccc3)nn2)s1` [Compound 552]: under setting [2], the IC50 was 5 nM.
On to `O=C(Cc1ccccc1)Nc1nnc(CCCCc2nnc(NC(=O)Cc3cccc(Cn4cccn4)c3)s2)s1` [Compound 392], for which the IC50 under setting [1] was determined as 72 nM.
Still for that read-out and setting: under `CCC(C)C(=O)Nc1nnc(CCCCc2nnc(NC(=O)C(C)CC)s2)s1` (stereo not drawn) [Compound 107] stands 1200 nM.
Consider `COc1ccc(CC(=O)Nc2nnc(CCCCc3nnc(NC(=O)Cc4ccc(OC)c(OC)c4)s3)s2)cc1OC` [Compound 160], for which, under setting [1], the IC50 was > 50000 nM.
The same measure, in the same setting: under `O=C(Cc1ccccc1)Nc1ccc(CCCCc2nnc(NC(=O)C(O)c3ccccc3)s2)nn1` (stereo not drawn) [Compound 315] stands 35 nM.
With `C[C@H](NC(=O)OC(C)(C)C)C(=O)Nc1nnc(CCSCCc2nnc(NC(=O)[C@H](C)NC(=O)OC(C)(C)C)s2)s1` [Compound 49], under setting [1], the IC50 is 17000 nM.
On the same count and under the same terms, under `NCCC(C(=O)Nc1nnc(CCSCCc2nnc(NC(=O)C(CN)c3ccccc3)s2)s1)c1ccccc1` (stereo not drawn) [Compound 214] stands 1200 nM; under `O=C(Cc1ccco1)Nc1nnc(CCCCc2nnc(NC(=O)Cc3ccco3)s2)s1` [Compound 86], 520 nM; under `C=CCCC(=O)Nc1nnc(CCSCCc2nnc(NC(=O)CCC=C)s2)s1` [Compound 18], 8200 nM.
In the case of `O=C(Cc1ccccc1)Nc1ccc(CCCCc2nnc(NC(=O)Cc3cccc4[nH]ncc34)s2)nn1` [Compound 512], the half-maximal inhibitory concentration (IC50) under setting [2] came out at 46 nM.
For `O=C(Nc1nnc(CCCCc2nnc(NC(=O)C(c3ccccc3)N3CCNCC3)s2)s1)C(c1ccccc1)N1CCNCC1` (stereo not drawn) [Compound 77], under setting [1], the IC50 turned out to be 34000 nM.
On the same count and under the same terms, under `CC(C)(C)OC(=O)N1CCN(C(C(=O)Nc2nnc(CCCCc3nnc(NC(=O)C(c4ccccc4)N4CCN(C(=O)OC(C)(C)C)CC4)s3)s2)c2ccccc2)CC1` (stereo not drawn) [Compound 63] stands 2600 nM.
On the same count and under the same terms, under `O=C(Cc1ccsc1)Nc1nnc(CCCCc2nnc(NC(=O)Cc3ccsc3)s2)s1` [Compound 88] stands 120 nM.
On to `O=C(O)Cc1cccc(OCC(=O)Nc2nnc(CCCCc3ccc(NC(=O)Cc4ccccc4)nn3)s2)c1` [Compound 627], for which the IC50 under setting [2] is 850 nM.
Same read-out and setting: under `CC(N)c1cccc(CC(=O)Nc2ccc(CCCCc3nnc(NC(=O)Cc4ccccc4)s3)nn2)c1` (stereo not drawn) [Compound 560] stands 37 nM.
As for `O=C(Nc1nnc(CCCCc2nnc(NC(=O)C(O)c3cccc(Cl)c3)s2)s1)C(O)c1cccc(Cl)c1` (stereo not drawn) [Compound 306], the IC50 under setting [1] stood at 66 nM.
Still for that read-out and setting: the same measure for `Cc1cc(C)n(CC(=O)Nc2nnc(CCSCCc3nnc(NC(=O)Cn4nc(C)cc4C)s3)s2)n1` [Compound 97]: 17000 nM.
`COc1ccc(CC(=O)Nc2nnc(CCSCCc3nnc(NC(=O)Cc4ccc(OC)c(OC)c4)s3)s2)cc1OC` [Compound 157]: under setting [1], the IC50 was found to be 180 nM.
Same read-out and setting: the same measure for `COc1ccccc1CC(=O)Nc1nnc(CCCCc2nnc(NC(=O)Cc3ccccc3OC)s2)s1` [Compound 264]: 10 nM; for `O=C(Cc1c(F)cccc1F)Nc1nnc(CCCCc2nnc(NC(=O)Cc3c(F)cccc3F)s2)s1` [Compound 293]: 40 nM.
On the same count and under the same terms, the same measure for `O=C(Nc1nnc(CCCCc2nnc(NC(=O)C3(c4cccs4)CCOCC3)s2)s1)C1(c2cccs2)CCOCC1` [Compound 167]: 34000 nM.
On to `NCc1cccc(CC(=O)Nc2nnc(CCCCc3nnc(NC(=O)Cc4ccccc4)s3)s2)c1` [Compound 437], for which the IC50 under setting [2] was determined as 72 nM.
`COc1ccc(CC(=O)Nc2nnc(CCSCCc3nnc(NC(=O)Cc4ccc(OC)cc4)s3)s2)cc1` [Compound 161]: the IC50 under setting [1] is 1400 nM.
`CN(Cc1cc(CC(=O)Nc2nnc(CCCCc3ccc(NC(=O)Cc4ccccc4)nn3)s2)ccc1F)C(=O)OC(C)(C)C` [Compound 569]: under setting [2], the IC50 was 11 nM.
Same read-out and setting: under `CC(NC(=O)OC(C)(C)C)c1cccc(CC(=O)Nc2nnc(CCCCc3ccc(NC(=O)Cc4ccccc4)nn3)s2)c1` (stereo not drawn) [Compound 541] stands 6 nM; under `CC(C)(C)OC(=O)N1CCN(Cc2cc(CC(=O)Nc3nnc(CCCCc4ccc(NC(=O)Cc5ccccc5)nn4)s3)ccc2F)CC1` [Compound 493], 57 nM; under `CC(C)(C)OC(=O)NCc1cc(CC(=O)Nc2nnc(CCCCc3ccc(NC(=O)Cc4ccccc4)nn3)s2)ccc1F` [Compound 492], 14 nM.
Turning to `O=C(Cc1cccs1)Nc1nnc(CCCCc2nnc(NC(=O)Cc3cccs3)s2)s1` [Compound 87], the IC50 under setting [1] worked out at 60 nM.
Turning to `O=C(Nc1nnc(CCCCc2nnc(NC(=O)C(O)c3ccccc3Br)s2)s1)C(O)c1ccccc1Br` (stereo not drawn) [Compound 287], the IC50 under setting [1] was determined as 1300 nM.
On to `N[C@H](C(=O)Nc1nnc(CCSCCc2nnc(NC(=O)[C@@H](N)c3ccccc3)s2)s1)c1ccccc1` [Compound 175], for which the IC50 under setting [1] amounted to 23000 nM.
Turning to `O=C(Nc1nnc(CCCCc2nnc(NC(=O)[C@@H](O)Cc3ccccc3)s2)s1)[C@@H](O)Cc1ccccc1` [Compound 146], the IC50 under setting [1] came out at 460 nM.
Take `O=C(C[C@@H](O)C(=O)O)Nc1nnc(CCCCc2nnc(NC(=O)C[C@@H](O)C(=O)O)s2)s1` [Compound 154]: under setting [1], the IC50 is > 50000 nM.
Still for that read-out and setting: under `COc1ccccc1C(C)C(=O)Nc1nnc(CCSCCc2nnc(NC(=O)C(C)c3ccccc3OC)s2)s1` (stereo not drawn) [Compound 263] stands 3900 nM.
On to `CCOc1ccc(CC(=O)Nc2nnc(CCCCc3ccc(NC(=O)Cc4ccccc4)nn3)s2)cc1OC` [Compound 547], for which the IC50 under setting [2] came out at 31 nM.
On to `O=C(Cc1ccccc1)Nc1nnc(CCSCc2nnc(NC(=O)Cc3ccccn3)s2)s1` [Compound 373], for which, under setting [1], the IC50 worked out at 280 nM.
Take `Nc1ccc(CCCCc2nnc(NC(=O)Cc3cccc(OC(F)(F)F)c3)s2)nn1` [Compound 584]: the IC50 under setting [2] was 1400 nM.
In the case of `O=C(Nc1nnc(CCCCc2nnc(NC(=O)C3Oc4ccccc4O3)s2)s1)C1Oc2ccccc2O1` [Compound 136], the IC50 under setting [1] stood at 4700 nM.
For the compound `O=C(Cc1cccs1)Nc1nnc(CCSCCc2nnc(NC(=O)Cc3cccs3)s2)s1` [Compound 116], the IC50 under setting [1] was determined as 720 nM.
Same read-out and setting: the same measure for `O=C(Cc1ccccc1)Nc1nnc(CCCCc2nnc(NC(=O)[C@H]3CCCC[C@@H]3C(=O)c3ccccc3)s2)s1` [Compound 290]: 790 nM; for `O=C(CC1CC1)Nc1nnc(CCSCCc2nnc(NC(=O)CC3CC3)s2)s1` [Compound 83]: 1400 nM.
For the compound `O=C(Cc1ccccc1)Nc1ccc(CCCCc2nnc(NC(=O)Cc3cccc(OC(F)F)c3)s2)nn1` [Compound 664], the IC50 under setting [2] was 60 nM.

The values are drawn from patent US20150004134A1, “TREATMENT OF CANCER WITH HETEROCYCLIC INHIBITORS OF GLUTAMINASE” (Calithera Biosciences, Inc., priority 2012, published 2015).
